{"source": "patent EP1026237B1", "about": "“Use of an inhibitor of Tau/neurofilament protein kinase PK40” (Massachusetts Institute Of Technology, priority 1991, dated 1993)", "key": {"PK40": {"tested_on": "PK40", "test": "32P kinase assay, ATP dependence and inhibition of PK40 activity with dephosphorylated NF-M as substrate", "type": "biochemical, bovine", "conditions": "for relative activity [%] of PK40: % of control", "experimental": "(§1) An alternative method for assaying the phosphorylating activity of the kinases was by ^32P assays. Radioactive assays in the same buffer system as for immunoassays contained 5 µg of HTP-purified native NF-triplet as substrate (3µg of substrate proteins other than NFs) and 150-250 cpm/pmole gamma-^32P-ATP. Incubation times were 15 minutes at 37°C for activities up to about 1 pmole/min/assay, since the assay responses were linear within these time intervals. Assays were stopped by cooling on ice, addition of 20 µl 25 mM EDTA and immediate transfer of the mixture onto glass filters (Whatman GF/A) wetted with 10% TCA/2% sodium pyrophosphate (PPA). The glass filters were washed twice for 1 hour and once for at least 3 hours in 10% TCA/2% PPA and finally in ethanol and were air-dried. Radioactivity was assessed by scintillation counting (Beckman LS 230) with 5 ml \"Liquiscint\" (National Diagnostics) for 20 minutes. Assays were routinely carried out in triplicate except for some duplicate assays in a few explicitly mentioned cases; a control assay lacking NFs was subtracted from the mean value.\nThe ATP dependence and inhibition of the activities of PK40 and PK36 were determined at 2 mM Mg^2+ with soluble dephosphorylated NF-M as second substrate to avoid uncertainties arising from the aggregation state of NF-triplet in suspension. The optima were at 0.5 - 1 mM ATP for both kinases. Apparent Km values for ATP of both kinases were estimated from Woolf-Hanes plots (Dixon and Webb, 1979) for a range of ATP concentrations sufficiently below the onset of inhibition. […] The apparent Km of PK36 was approximately 50 µM."}, "PK36": {"tested_on": "PK36", "test": "32P kinase assay, ATP dependence and inhibition of PK36 activity with dephosphorylated NF-M as substrate", "type": "biochemical, bovine", "conditions": "% of control", "experimental": "as §1, with “Incubation times were 15 minutes at 37°C for activities up to about 1 pmole/min/assay, since the assay responses were linear within these time intervals. Assays were stopped by cooling on ice, addition of 20 µl 25 mM EDTA and immediate transfer of the mixture onto glass filters (Whatman GF/A) wetted with 10% TCA/2% sodium pyrophosphate (PPA).” left out"}, "[1]": {"target": "KSP-phosphorylating kinases", "test": "Immuno-dotblot assay (SMI-31/SMI-34) of crude enzyme with dephosphorylated NF-triplet", "type": "biochemical, bovine", "conditions": "ATP [5mM]", "experimental": "The preferred method for the immunoassay for detecting KSP-phosphorylating kinases is as follows. Dephosphorylated NF-triplet protein was incubated with the 35-45% ammonium sulfate fraction of the brain supernatant (see section B.). Immuno-dotblot assays were performed in 50 mM HEPES, pH 7.0, 2 mM MgCl2, […], 2 mM DTT in a total volume of 30 µl with 5 µg of dephosphorylated native NF-triplet or 1.2 µg of dephosphorylated pure subunits NF-M or NF-H as substrates together with a control assay lacking NFs. After incubation at 37°C for 18 hours, assays were diluted to 100 µl with 10 mM PBS, pH 7.2, and aliquots of 50 µl were spotted on nitrocellulose (0.22µm, Schleicher and Schüll). Blots were blocked by 1 hour incubation with 3% BSA in 10mM PBS, pH 7.2, and washed once in 0.5% Triton-X100/10 mM PBS. Antibodies were diluted in sterile 10 mM PBS, pH 7.2, 0.5% Triton-X100, 10% fetal calf serum. Blots were incubated with SMI mAbs for at least 2 hours. The blots were then washed five times. Mouse mAbs were detected by reaction with horseradish-peroxidase-linked goat-anti-mouse antibody (Cappel Co.) in 1:200 dilution and by staining with 0.05% 4-chloro-1-naphthol (Sigma) and 0.05% H2O2 in 50 mM TBS, pH 7.5, 33% ethanol for 5-20 minutes. All incubations and washes were at room temperature. Incubations were sealed in plastic bags with 50 µl of solution/cm^2 membrane. […]"}, "[2]": {"target": "kinase PK40 (bovine brain) (bovine)", "test": "cell-based or functional assay"}}, "note": "Values joined by “and” are separate entries in the source; they are usually repeats but may differ in a detail not shown here. Equal values may be shown once.", "data": [{"molecule": "[Cl-].[Na+]", "note": "[NaCl, sodium chloride]", "values": [{"measurement": "relative activity [%] of PK40", "setting": "PK40; NaCl 150mM, 15 min, 150000 µM", "value": "27% and 27±1.8%"}, {"measurement": "relative activity [%] of PK36", "setting": "PK36; NaCl 150mM, 15 min, 150000 µM", "value": "40% and 40±0.8%"}]}, {"molecule": "ATP", "values": [{"measurement": "relative activity [%] of PK40", "setting": "PK40; 5mM Mg^2, 5mM ATP", "value": "78±7.1", "unit": "%"}, {"measurement": "inhibition of PK40 by an excess of ATP", "setting": "PK40; ATP in relatively small excess over Mg^2+", "value": "strongly inhibited"}, {"measurement": "Km", "setting": "PK40; PK40, 2 mM Mg^2+, Woolf-Hanes plots, mean ± S.D. of three determinations at three NF-M concentrations, read-out: apparent Km value for ATP", "value": "93 ± 12", "unit": "µM"}, {"measurement": "relative activity [%] of PK36", "setting": "PK36; 5mM Mg^2, 5mM ATP", "value": "38±2.2", "unit": "%"}, {"measurement": "kinase activity (reconstitution of SMI-31 and SMI-34 epitopes)", "setting": "[1]", "value": "inhibited"}]}, {"molecule": "Walsh inhibitor", "values": [{"measurement": "relative activity [%] at Walsh Inhibitor 1.5 [M, as printed] (% of the control)", "setting": "[2]", "value": 107}, {"measurement": "relative activity [%] at Walsh Inhibitor 4.5 [M, as printed] (% of the control)", "setting": "[2]", "value": 102}, {"measurement": "relative activity [%] at Walsh Inhibitor 45 [M, as printed] (% of the control)", "setting": "[2]", "value": 101}]}]}
